We go through 18 molecules from patent US7211278B2, “Treating method for suppressing hair growth” (Kao Corporation, priority 1999, dated 2007).

Experiment [1] deals with T1, neutral endopeptidase of cultivated human fibroblast (Homo sapiens, UniProt P08473).
T1 construct: followed by ultrasonic pulverization, whereby an enzyme solution was obtained; host or cells: normal human fibroblasts, Triton X-100 lysate after sonication
The experiment is described as follows: Inhibition test on neutral endopeptidase activity of cultivated human fibroblast. The experiment is classed as biochemical. The conditions noted are these: enzyme solution from human fibroblast, substrate glutaryl-Ala-Ala-Phe-4-methoxy-2-naphthylamine. The source says: Test 1 Inhibition Test on Neutral Endopeptidase Activity of Cultivated Human Fibroblast
Normal human fibroblast commercially available from Dainippon Pharmaceutical Co., Ltd. was subcultured on a DME medium containing 10% bovine fatal serum and provided for the present test. The cells peeled by a rubber-policeman from a Petri dish were floated in a phosphate-buffered physiological saline, collected by a low-velocity centrifuge, and washed three times with the same physiological saline. The cells were floated in a 0.1% Triton X-100/0.2M tris-HCl buffer (pH 8.0), followed by ultrasonic pulverization, whereby an enzyme solution was obtained.
The enzyme activity was measured as follows: To 100 μL of an MES buffer (100 mM, pH 6.5) added with sodium chloride (300 mM), were added 2 μL of the enzyme solution, 1 μL of a solution of the invention compound and, as a substrate for the measurement of enzyme activity, 1 μL of 20 mM glutalyl-Ala-Ala-Phe-4-methoxy-2-naphthylamine, followed by reaction at 37° C. for 1 hour. Phosphoramldon was added to the reaction mixture to give its final concentration of 0.4 μM and then, the reaction was terminated. Aminopeptidase M having a final concentration of 20 mU was added to the reaction mixture and the resulting mixture were reacted at 37° C. for 15 minutes. The amount of the resulting 4-methoxy-2-naphthylamine was determined by measuring the fluorescent strength at excited wavelength of 340 nm and fluorescent wavelength of 425 nm by a fluorospectrophotometer and % inhibition of the compound against enzyme activity was determined.

Another experiment relates to C3H mice. The experiment is described as follows: Hair growth test (2) using mice. The experiment is classed as in vivo. The method, then:
(1) Preparation of a Test Sample
Each of Compounds 1 to 3 and 7 was dissolved in a 50% ethanol solution, whereby a 1 mM solution was prepared.
Papain powder (produced by CALBIOCHEM-NOVABIOCHEM CORPORATION) was dissolved in purified water to prepare a 2% aqueous solution, followed by the addition of an equal amount of ethanol to prepare a 1% ethanol solution.
Trypsin powder (produced by Sigma Aldrich Corporation) was dissolved in Hanks' Balanced Salt Solution (produced by Gibco BRL) having 1 mM EDTA-4Na dissolved therein, followed by the addition of an equal amount of ethanol to prepare a 1% ethanol solution.
Chymotrypsin powder (produced by Sigma Aldrich Corporation) was treated in a manner similar to that employed for trypsin, whereby a 1% ethanol solution was prepared.
The back of 6-week-old C3H mice (each group consisting of 5 mice) was, shaved by 2×4 cm^2 by electric hair clippers or an electric shaver so as not to injure its skin. The sample was applied in an amount of 100 μL/once to the shaved portion twice a day for 4 weeks. To a control group, only a solvent was applied. Three weeks after depilation, the picture of the shaved portion was taken at a fixed magnification in order to observe the regrowth hair and the area of the hair regrowth (area of regrowth hair/shaved area) was compared with that of the control group by using an image analyzer.

[2] abbreviates: proteolytic enzyme 1% alone (Solvent), 100 μL twice a day.
Setting [3] is: compound 1 mM alone (Solvent column), 100 μL twice a day on shaved back.
Setting [4] is: compound 1 mM combined with Papain 1%, 100 μL twice a day.

Peptide text beside a SMILES is read from it.

T1 sequence (P08473 whole entry): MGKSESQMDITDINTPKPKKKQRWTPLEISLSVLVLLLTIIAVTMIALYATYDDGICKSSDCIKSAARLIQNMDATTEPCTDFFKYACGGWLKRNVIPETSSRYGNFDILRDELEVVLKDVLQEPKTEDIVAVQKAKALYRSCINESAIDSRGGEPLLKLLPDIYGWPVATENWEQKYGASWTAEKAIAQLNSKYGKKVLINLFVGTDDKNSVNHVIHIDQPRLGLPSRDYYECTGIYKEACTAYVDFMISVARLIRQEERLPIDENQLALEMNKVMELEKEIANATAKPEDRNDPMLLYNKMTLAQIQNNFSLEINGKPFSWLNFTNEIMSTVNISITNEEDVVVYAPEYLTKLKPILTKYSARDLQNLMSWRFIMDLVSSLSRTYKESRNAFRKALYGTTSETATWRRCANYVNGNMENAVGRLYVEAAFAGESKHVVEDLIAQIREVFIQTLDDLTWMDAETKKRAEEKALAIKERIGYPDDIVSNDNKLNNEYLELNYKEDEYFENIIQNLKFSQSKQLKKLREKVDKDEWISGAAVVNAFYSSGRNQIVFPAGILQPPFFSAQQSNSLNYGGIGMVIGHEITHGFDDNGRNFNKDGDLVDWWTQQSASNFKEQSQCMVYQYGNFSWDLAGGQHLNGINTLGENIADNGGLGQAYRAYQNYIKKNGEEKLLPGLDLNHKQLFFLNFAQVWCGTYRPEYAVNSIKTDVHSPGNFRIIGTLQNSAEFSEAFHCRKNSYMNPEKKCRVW

One may read the inhibition as the drop in the measured response relative to a control, in per cent. High values mean a response far below the control, low ones a response near the control. `CCOC(=O)CNC(=O)C(Cc1ccc(-c2ccccc2)cc1)C(=O)OCC` (centres unmarked) [Compound 11]: at 100 µM the inhibition in experiment [1] (concentration 0.1 mM) was 85.7 ± 2.2%.
On the same count and under the same terms, the same measure for `O=C(O)CCNC(=O)C(Cc1ccccc1)C(=O)O` (centres unmarked) [Compound 12]: 69.5 ± 4.3%; for `CCOC(=O)CNC(=O)C(Cc1ccccc1)C(=O)OCC` (centres unmarked) [Compound 9]: 74.5 ± 9.3%.
One may read the % inhibition as the drop in the measured response relative to a control, in per cent. Low readings indicate a response near the control, high ones a response far below the control. Regarding Phe-β-Ala, in experiment [1] (concentration 0.1 mM), the “% inhibition” value amounted to 92.6%.
For the molecule Asp-Phe, the “% inhibition” value in experiment [1] (concentration 1 mM) was 45.7%.
The same measure, in the same setting: under Phe-Asp stands 85.4%.
On to Chymotrypsin, for which the “Hair growth inhibition 3 weeks after depilation” value (shortened to “Hair growth inhibition 3 weeks”) in the experiment on C3H mice (setting [2]) is on record as 20.1.
Molecule `O=C(O)CC(=O)N[C@@H](Cc1ccccc1)C(=O)O` [Compound 13] gave an inhibition at 1000 µM in experiment [1] (concentration 1 mM) of 49.3 ± 1.2%.
On the same count and under the same terms, the same measure for `CCOC(=O)CNC(=O)CC(=O)OCC` [Compound 8]: 23.8 ± 2.7%.
Consider Phe-Gly, for which the “% inhibition” value in experiment [1] (concentration 1 mM) was 49.4%.
For the molecule Phe-Phe, the “% inhibition” value in experiment [1] (concentration 1 mM) amounted to 85.7%.
Phe-Leu: the “% inhibition” value in experiment [1] (concentration 1 mM) is listed as 72.9%.
Turning to Trypsin, the “Hair growth inhibition 3 weeks” value with C3H mice (setting [2]) amounted to 25.6.
In experiment [1] (concentration 1 mM), `COC(=O)[C@H](Cc1ccccc1)NC(=O)[C@@H](N)CC(=O)O` [Aspartame, Asp-Phe-OMe (aspartame)] (H-Asp-Phe-OMe) returned an inhibition at 1000 µM of 30.2%.
On to `CC(C)CC(NP(=O)(O)CCc1ccccc1)C(=O)NC(Cc1c[nH]c2ccccc12)C(=O)O` (centres unmarked) [Compound 2], for which the figures for the “Hair growth inhibition 3 weeks” value with C3H mice (setting [3]) and with C3H mice (setting [4]) were 59.1 and 80.3, respectively.
The molecule `O=C(O)CNC(=O)C(Cc1ccccc1)C(=O)O` (centres unmarked) [Compound 10] registered an inhibition at 100 µM in experiment [1] (concentration 0.1 mM) of 91.2 ± 3.7%.
Consider `O=C(O)CCNC(=O)C(CS)Cc1ccccc1` (centres unmarked) [Compound 7], for which the “Hair growth inhibition 3 weeks” value in the experiment on C3H mice (setting [3]) was 59.7; with C3H mice (setting [4]), 77.9.

B1: Papain: proteolytic enzyme, papain powder (CALBIOCHEM-NOVABIOCHEM), 1% ethanol solution (protein, UniProt P00784 134-345, looked up)
Papain: IPEYVDWRQKGAVTPVKNQGSCGSCWAFSAVVTIEGIIKIRTGNLNEYSEQELLDCDRRSYGCNGGYPWSALQLVAQYGIHYRNTYPYEGVQRYCRSREKGPYAAKTDGVRQVQPYNEGALLYSIANQPVSVVLEAAGKDFQLYRGGIFVGPCGNKVDHAVAAVGYGPNYILIKNSWGTGWGENGYIRIKRGTGNSYGVCGLYTSSFYPVKN
For the molecule B1, the “Hair growth inhibition 3 weeks” value with C3H mice (setting [2]) is reported as 17.3.
